Measurements from patent US5055302A, “Neuropeptide control of ocular growth” (Trustees of the University of Pennsylvania, priority 1990, dated 1991).
“Also recorded” adds a separate entry of the source.

Legend:
[1] = tested on: lid-sutured eyes; test: Form deprivation myopia induced by eyelid suture in chicks; VIP given daily by subconjunctival injection to the sutured eye, ocular dimensions measured with calipers; type: in vivo, White Leghorn chicks; conditions: for Axial length (deprived minus control eye), mean ± S.E.M. / Equatorial diameter (deprived minus control eye), mean ± S.E.M.: subconjunctival
Method: (§1) Form deprivation myopia in day-old White Leghorn chicks was induced by eyelid suture under aseptic conditions and ether anesthesia. One eyelid of the chicks was sutured. […] Translucent vision is permitted through the eyelid. The contralateral unsutured open eye served as the control eye. VIP was administered daily to the deprived, or sutured, eye. Saline was administered to the unsutured eye. All agents were given under ether anesthesia by subconjunctival injection. The chicks were maintained on a 12 hour light/dark cycle. The birds were killed at ages up to 4 weeks by decapitation under deep pentobarbital anesthesia. Axial and equatorial dimensions of unfixed eyes were measured with vernier calipers.
(§2) VIP (porcine VIP, Peninsula Laboratories, Inc. Belmont Calif.) was administered in three (descending) dose levels to lid-sutured eyes of 23 chicks and to one eye of an additional 15 chicks which had both eyes open.

[2] = tested on: open eyes; test: Effect of VIP on growth of open eyes (control chicks with both eyes open, one eye treated); type: in vivo, White Leghorn chicks; conditions: for Axial length (treated eye minus untreated eye), mean ± S.E.M. / Equatorial diameter (treated eye minus untreated eye), mean ± S.E.M.: open eyes, subconjunctival
Method: as §1, §2

Structure (SMILES): CC[C@H](C)[C@H](NC(=O)[C@H](CO)NC(=O)[C@H](CC(N)=O)NC(=O)[C@H](CC(C)C)NC(=O)[C@H](Cc1ccc(O)cc1)NC(=O)[C@H](CCCCN)NC(=O)[C@H](CCCCN)NC(=O)[C@@H](NC(=O)[C@H](C)NC(=O)[C@H](CCSC)NC(=O)[C@H](CCC(N)=O)NC(=O)[C@H](CCCCN)NC(=O)[C@H](CCCNC(=N)N)NC(=O)[C@H](CC(C)C)NC(=O)[C@H](CCCNC(=N)N)NC(=O)[C@@H](NC(=O)[C@H](Cc1ccc(O)cc1)NC(=O)[C@H](CC(N)=O)NC(=O)[C@H](CC(=O)O)NC(=O)[C@@H](NC(=O)[C@H](Cc1ccccc1)NC(=O)[C@@H](NC(=O)[C@H](C)NC(=O)[C@H](CC(=O)O)NC(=O)[C@H](CO)NC(=O)[C@@H](N)Cc1c[nH]cn1)C(C)C)[C@@H](C)O)[C@@H](C)O)C(C)C)C(=O)N[C@@H](CC(C)C)C(=O)N[C@@H](CC(N)=O)C(N)=O [VIP, vasoactive intestinal peptide]
- Block of axial elongation ([1]; 0.25 μg dose): ~80%
- Treatment effect on axial length, one way analysis of variance ([1]; (p<0.05)): significant treatment effects
- Treatment effect on equatorial diameters ([1]; VIP treatment, all doses): no significant treatment effects
- Axial length (deprived minus control eye), mean ± S.E.M. ([1]; daily dose 0.025 μg): 0.17 ± 0.10 mm
- Equatorial diameter (deprived minus control eye), mean ± S.E.M. ([1]; daily dose 0.025 μg): 0.91 ± 0.05 mm
- Axial length (deprived minus control eye), mean ± S.E.M. ([1]; daily dose 0.25 μg): 0.07 ± 0.07 mm
- Equatorial diameter (deprived minus control eye), mean ± S.E.M. ([1]; daily dose 0.25 μg): 0.92 ± 0.04 mm
- Effective range of the peptide ([1]; daily dose 2.5 μg): outside the effective range
- Axial length (deprived minus control eye), mean ± S.E.M. ([1]; daily dose 2.5 μg): 0.34 ± 0.15 mm
- Equatorial diameter (deprived minus control eye), mean ± S.E.M. ([1]; daily dose 2.5 μg): 0.90 ± 0.10 mm
- Treatment effect on axial length, one way analysis of variance ([1]; dose 0.25 μg (p<0.001)): profound treatment effect; also recorded: significant treatment effects
- Treatment effect on axial or equatorial diameters ([2]; controls (both eyes open), all three levels of VIP): no significant treatment effect
- Axial length (treated eye minus untreated eye), mean ± S.E.M. ([2]; daily dose 0.025 μg): 0.008 ± 0.10 mm
- Equatorial diameter (treated eye minus untreated eye), mean ± S.E.M. ([2]; daily dose 0.025 μg): 0.07 ± 0.04 mm
- Axial length (treated eye minus untreated eye), mean ± S.E.M. ([2]; daily dose 0.25 μg): 0.03 ± 0.05 mm
- Equatorial diameter (treated eye minus untreated eye), mean ± S.E.M. ([2]; daily dose 0.25 μg): 0.02 ± 0.02 mm
- Axial length (treated eye minus untreated eye), mean ± S.E.M. ([2]; daily dose 2.5 μg): 0.13 ± 0.06 mm
- Equatorial diameter (treated eye minus untreated eye), mean ± S.E.M. ([2]; daily dose 2.5 μg): -0.01 ± 0.06 mm
